Experimental findings from ChEMBL document CHEMBL4393731, “Discovery of fused bicyclic derivatives of 1H-pyrrolo[1,2-c]imidazol-1-one as VDR signaling regulators” (Bioorg Med Chem, 2019) are described below.

Active and inactive are the calls of the source. The calls are words filed in the database; no cut-off is given here.

One data set concerns HeLa. The data set can be described thus: Cytotoxicity against human HeLa cells measured after 24 hrs by MTT assay. It is filed as cell-based. (Tetrazolium assays rely on reduction of a dye to a coloured formazan, in cell work by metabolically active cells.)
`O=C1[C@@H]2CCCN2[C@@H](c2cccs2)N1c1ccc([N+](=O)[O-])cc1`: the CC10 is greater than 10 µM.

For the molecule `CC(C)c1ccc([C@H]2N(c3ccc([N+](=O)[O-])cc3)C(=O)[C@@H]3CCCN32)cc1`, the CC10 was greater than 10 µM.

In the case of `O=C1[C@@H]2CCCN2[C@@H](c2ccccc2)N1c1ccc([N+](=O)[O-])cc1`, the CC10 was greater than 10 µM.

Molecule `O=C1[C@@H]2CCCN2[C@@H](c2ccc(C(F)(F)F)cc2)N1c1ccc([N+](=O)[O-])cc1` had a CC10 greater than 10 µM.

Molecule `O=C1[C@@H]2CCCN2[C@@H](c2ccc(O)cc2)N1c1ccc([N+](=O)[O-])cc1` came in with a CC10 greater than 10 µM.

On to `O=C1[C@@H]2CCCN2[C@@H](c2cccc([N+](=O)[O-])c2)N1c1ccc([N+](=O)[O-])cc1`, for which the CC10 is greater than 10 µM.

`O=C1[C@@H]2CCCN2[C@@H](c2ccc([C@H]3N(c4ccc([N+](=O)[O-])cc4)C(=O)[C@@H]4CCCN43)cc2)N1c1ccc([N+](=O)[O-])cc1` had a CC10 greater than 10 µM.

In turn, `O=C1[C@@H]2CCCN2[C@@H](Cc2ccccc2)N1c1ccc([N+](=O)[O-])cc1` registered a CC10 greater than 10 µM.

On to `O=C1[C@@H]2CCCN2[C@@H](c2ccc([N+](=O)[O-])cc2)N1c1ccc([N+](=O)[O-])cc1`, for which the CC10 is greater than 10 µM.

In a further data set the target is T1, Vitamin D3 receptor (Homo sapiens) (UniProt P11473).
T1 sequence (whole entry): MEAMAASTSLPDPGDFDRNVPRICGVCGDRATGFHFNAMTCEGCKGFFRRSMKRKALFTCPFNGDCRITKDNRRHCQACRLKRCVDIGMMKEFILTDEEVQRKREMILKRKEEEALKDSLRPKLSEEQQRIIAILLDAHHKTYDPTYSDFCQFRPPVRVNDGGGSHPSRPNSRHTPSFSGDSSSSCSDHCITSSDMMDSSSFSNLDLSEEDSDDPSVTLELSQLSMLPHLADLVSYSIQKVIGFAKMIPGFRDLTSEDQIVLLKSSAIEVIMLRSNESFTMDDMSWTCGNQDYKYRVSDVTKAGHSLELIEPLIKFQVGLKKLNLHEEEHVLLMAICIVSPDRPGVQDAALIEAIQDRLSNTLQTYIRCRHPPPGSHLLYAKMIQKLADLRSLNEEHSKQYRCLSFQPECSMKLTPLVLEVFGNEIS
The experiment in a line: Activation of VDR (unknown origin) expressed in human HeLa cells measured after 24 hrs by luciferase reporter assay. It is filed as cell-based.
`O=C1[C@@H]2CCCN2[C@@H](c2cccs2)N1c1ccc([N+](=O)[O-])cc1`: the result was inactive.

As to `CC(C)c1ccc([C@H]2N(c3ccc([N+](=O)[O-])cc3)C(=O)[C@@H]3CCCN32)cc1`, the result was inactive.

As for `O=C1[C@@H]2CCCN2[C@@H](c2ccccc2)N1c1ccc([N+](=O)[O-])cc1`, the outcome was inactive.

Take `O=C1[C@@H]2CCCN2[C@@H](c2ccc(C(F)(F)F)cc2)N1c1ccc([N+](=O)[O-])cc1`: the outcome was inactive.

As for `O=C1[C@@H]2CCCN2[C@@H](c2ccc(O)cc2)N1c1ccc([N+](=O)[O-])cc1`, the result was inactive.

Turning to `O=C1[C@@H]2CCCN2[C@@H](c2cccc([N+](=O)[O-])c2)N1c1ccc([N+](=O)[O-])cc1`, the outcome was inactive.

As for `O=C1[C@@H]2CCCN2[C@@H](c2ccc([C@H]3N(c4ccc([N+](=O)[O-])cc4)C(=O)[C@@H]4CCCN43)cc2)N1c1ccc([N+](=O)[O-])cc1`, the outcome was inactive.

Turning to `O=C1[C@@H]2CCCN2[C@@H](Cc2ccccc2)N1c1ccc([N+](=O)[O-])cc1`, the result was inactive.

With `O=C1[C@@H]2CCCN2[C@@H](c2ccc([N+](=O)[O-])cc2)N1c1ccc([N+](=O)[O-])cc1`, the outcome was inactive.

For a further data set, the target named is Genome polyprotein (dengue virus type 2) (UniProt P29990). The data set can be described thus: Inhibition of Dengue virus 2 NS2B-NS3 protease.
As for `O=C1[C@@H]2CCCN2[C@@H](c2cccs2)N1c1ccc([N+](=O)[O-])cc1`, the “Inhibition (active/not active)” value was “inactive”.

For the molecule `CC(C)c1ccc([C@H]2N(c3ccc([N+](=O)[O-])cc3)C(=O)[C@@H]3CCCN32)cc1`, the “Inhibition (active/not active)” value is “Active”.

As for `O=C1[C@@H]2CCCN2[C@@H](c2ccccc2)N1c1ccc([N+](=O)[O-])cc1`, the “Inhibition (active/not active)” value is “Active”.

Take `O=C1[C@@H]2CCCN2[C@@H](c2ccc(C(F)(F)F)cc2)N1c1ccc([N+](=O)[O-])cc1`: the “Inhibition (active/not active)” value was “Active”.

As to `O=C1[C@@H]2CCCN2[C@@H](c2ccc(O)cc2)N1c1ccc([N+](=O)[O-])cc1`, the “Inhibition (active/not active)” value is “inactive”.

For `O=C1[C@@H]2CCCN2[C@@H](c2cccc([N+](=O)[O-])c2)N1c1ccc([N+](=O)[O-])cc1`, the “Inhibition (active/not active)” value was “Active”.

As to `O=C1[C@@H]2CCCN2[C@@H](c2ccc([C@H]3N(c4ccc([N+](=O)[O-])cc4)C(=O)[C@@H]4CCCN43)cc2)N1c1ccc([N+](=O)[O-])cc1`, the “Inhibition (active/not active)” value is “inactive”.

Consider `O=C1[C@@H]2CCCN2[C@@H](Cc2ccccc2)N1c1ccc([N+](=O)[O-])cc1`, for which the “Inhibition (active/not active)” value was “Active”.

Consider `O=C1[C@@H]2CCCN2[C@@H](c2ccc([N+](=O)[O-])cc2)N1c1ccc([N+](=O)[O-])cc1`, for which the “Inhibition (active/not active)” value is “Active”.

In a further data set the target is T1, Vitamin D3 receptor (Homo sapiens). The data set can be described thus: Modulation of VDR (unknown origin) expressed in human HeLa cells assessed as increase in calcitriol-induced response measured after 24 hrs by luciferase reporter assay. It is filed as cell-based.
In the case of `O=C1[C@@H]2CCCN2[C@@H](c2cccs2)N1c1ccc([N+](=O)[O-])cc1`, the outcome was inactive.

Consider `CC(C)c1ccc([C@H]2N(c3ccc([N+](=O)[O-])cc3)C(=O)[C@@H]3CCCN32)cc1`, for which the outcome was inactive.

For the molecule `O=C1[C@@H]2CCCN2[C@@H](c2ccccc2)N1c1ccc([N+](=O)[O-])cc1`, the outcome was inactive.

`O=C1[C@@H]2CCCN2[C@@H](c2ccc(C(F)(F)F)cc2)N1c1ccc([N+](=O)[O-])cc1`: the outcome was inactive.

In the case of `O=C1[C@@H]2CCCN2[C@@H](c2ccc(O)cc2)N1c1ccc([N+](=O)[O-])cc1`, the Activity result was “Dose-dependent effect”.

Regarding `O=C1[C@@H]2CCCN2[C@@H](c2cccc([N+](=O)[O-])c2)N1c1ccc([N+](=O)[O-])cc1`, the outcome was inactive.

`O=C1[C@@H]2CCCN2[C@@H](c2ccc([C@H]3N(c4ccc([N+](=O)[O-])cc4)C(=O)[C@@H]4CCCN43)cc2)N1c1ccc([N+](=O)[O-])cc1`: the outcome was inactive.

As for `O=C1[C@@H]2CCCN2[C@@H](Cc2ccccc2)N1c1ccc([N+](=O)[O-])cc1`, the outcome was inactive.

For the molecule `O=C1[C@@H]2CCCN2[C@@H](c2ccc([N+](=O)[O-])cc2)N1c1ccc([N+](=O)[O-])cc1`, the Activity result is “Dose-dependent effect”.
